Source: patent US20240199605A1, “SMALL MOLECULAR INHIBITORS OF NF-kB INDUCING KINASE” (Janssen Pharmaceutica NV, priority 2019, published 2024)

Biological target: recombinant human NF-kappaB-inducing kinase (NIK/MAP3K14) (Homo sapiens (Human), UniProt Q99558)
Assay: Inhibition of auto-phosphorylation of recombinant human NIK/MAP3K14 (AlphaScreen)
Format: biochemical
Settings: NIK auto-phosphorylation, 5 μM ATP, 1 nM NIK, 2 h at 25° C.; average of values
Experimental: Inhibition of auto-phosphorylation of recombinant human NF-kappaB-inducing kinase (NIK/MAP3K14) activity (AlphaScreen®)
NIK/MAP3K14 auto-phosphorylation activity was measured using the AlphaScreen® (αscreen) format (Perkin Elmer). All compounds tested were dissolved in dimethyl sulfoxide (DMSO) and further dilutions were made in assay buffer. The final DMSO concentration was 0.7% (v/v) in assays. The assay buffer was 50 mM Tris pH 7.5 containing 1 mM EGTA (ethylene glycol tetraacetic acid), 1 mM DTT (dithiothreitol), 0.1 mM Na3VO4, 5 mM MgCl2, and 0.01% Tween® 20. The assays were carried out in 384 well Proxiplates (Perkin Elmer). The incubations consisted of the compound, 5 μM Adenosine-5′-triphosphate (ATP), and 1 nM NIK/MAP3K14. Incubations were initiated by the addition of GST-tagged NIK/MAP3K14 enzyme, carried out for 2 h at 25° C. and terminated by addition of stop buffer containing anti-phospho-IKK Ser176/180 antibody. Protein A Acceptor and Glutathione-Donor beads were added before reading using an EnVision® Multilabel Plate Reader (Perkin Elmer). […] IC50's were determined by fitting a sigmoidal curve to % inhibition of control versus Log10 compound concentration.

recombinant human NF-kappaB-inducing kinase (NIK/MAP3K14), sequence (Q99558 whole entry): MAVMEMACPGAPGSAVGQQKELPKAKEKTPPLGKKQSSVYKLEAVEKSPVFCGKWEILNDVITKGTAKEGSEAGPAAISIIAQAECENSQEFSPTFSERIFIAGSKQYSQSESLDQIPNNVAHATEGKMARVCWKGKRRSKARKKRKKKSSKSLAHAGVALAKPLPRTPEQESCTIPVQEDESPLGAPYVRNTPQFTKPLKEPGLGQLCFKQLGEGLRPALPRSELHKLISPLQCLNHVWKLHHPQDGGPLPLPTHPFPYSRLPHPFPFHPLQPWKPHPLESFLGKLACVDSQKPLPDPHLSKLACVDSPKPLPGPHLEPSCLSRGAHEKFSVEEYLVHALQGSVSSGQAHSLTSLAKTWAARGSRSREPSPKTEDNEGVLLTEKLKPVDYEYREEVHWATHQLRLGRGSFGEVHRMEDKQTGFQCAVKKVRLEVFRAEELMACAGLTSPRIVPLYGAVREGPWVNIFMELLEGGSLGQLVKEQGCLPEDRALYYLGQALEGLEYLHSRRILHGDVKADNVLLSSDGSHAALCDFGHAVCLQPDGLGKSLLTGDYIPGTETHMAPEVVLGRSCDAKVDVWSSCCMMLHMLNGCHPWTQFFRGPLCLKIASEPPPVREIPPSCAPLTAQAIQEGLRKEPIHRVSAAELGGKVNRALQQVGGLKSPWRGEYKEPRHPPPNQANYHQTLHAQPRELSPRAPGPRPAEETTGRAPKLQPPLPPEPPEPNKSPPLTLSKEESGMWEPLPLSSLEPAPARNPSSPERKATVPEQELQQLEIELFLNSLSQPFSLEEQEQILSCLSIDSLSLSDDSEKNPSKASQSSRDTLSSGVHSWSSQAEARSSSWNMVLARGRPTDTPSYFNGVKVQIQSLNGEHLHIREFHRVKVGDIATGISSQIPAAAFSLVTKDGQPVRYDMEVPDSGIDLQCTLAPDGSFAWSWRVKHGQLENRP

Row | Structure (SMILES) | IC50 [µM]
1 | COc1ccc(C#C[C@]2(O)CCN(C)C2=O)cc1-c1nc2c(N)ncnc2s1 [Example 194, (R)-3-((3-(7-Aminothiazolo[5,4-d]pyrimidin-2-yl)-4-methoxyphenyl)ethynyl)-3-hydroxy-1-methylpyrrolidin-2-one] | 0.001
2 | Nc1nccc2c(C(F)(F)F)nc(-c3cccc(C#C[C@]4(O)CCc5cccnc54)c3)nc12 [Example 61, (R)-7-((3-(8-Amino-4-(trifluoromethyl)pyrido[3,4-d]pyrimidin-2-yl)phenyl)ethynyl)-6,7-dihydro-5H-cyclopenta[b]pyridin-7-ol] | 0.004
3 | Cc1ccc(C#C[C@@]2(O)C(=O)N(C)[C@@H]3C[C@@H]32)cc1-c1nc2c(N)ncnc2s1 [Example 318, (1R,4R,5S)-4-((3-(7-Aminothiazolo[5,4-d]pyrimidin-2-yl)-4-methylphenyl)ethynyl)-4-hydroxy-2-methyl-2-azabicyclo[3.1.0]hexan-3-one] | 0.001
4 | Cc1ccc(C#C[C@]2(O)C[C@@H](C)N(C)C2=O)cc1-c1nc2c(N)ncnc2s1 [Example 319, (3R,5R)-3-((3-(7-Aminothiazolo[5,4-d]pyrimidin-2-yl)-4-methylphenyl)ethynyl)-3-hydroxy-1,5-dimethylpyrrolidin-2-one] | 0.0015
5 | CN1CC[C@@](O)(C#Cc2cccc(-c3cc(C(F)F)c4ncnc(N)c4n3)c2)C1=O [Example 289, (R)-3-((3-(4-Amino-8-(difluoromethyl)pyrido[3,2-d]pyrimidin-6-yl)phenyl)ethynyl)-3-hydroxy-1-methylpyrrolidin-2-one] | 0.0014
6 | CN1CC[C@@](O)(C#Cc2cccc(-c3cc(N4CC(C(F)(F)F)C4)c4ncnc(N)c4n3)c2)C1=O [Example 315, (R)-3-[2-[3-[4-Amino-8-[3-(trifluoromethyl)azetidin-1-yl]pyrido[3,2-d]pyrimidin-6-yl]phenyl]ethynyl]-3-hydroxy-1-methyl-pyrrolidin-2-one] | 0.005
7 | Nc1nccc2cnc(-c3cccc(C#CC4(O)CCc5cccnc54)c3)nc12 (stereo in doubt) [Example 46, (S)-7-[2-[3-(8-Aminopyrido[3,4-d]pyrimidin-2-yl)phenyl]ethynyl]-5,6-dihydrocyclopenta[b]pyridin-7-ol] | 2.03
8 | CN1CC[C@@](O)(C#Cc2cccc(-c3cc(NCC(F)(F)F)c4ncnc(N)c4n3)c2)C1=O [Example 317, (R)-3-((3-(4-Amino-8-((2,2,2-trifluoroethyl)amino)pyrido[3,2-d]pyrimidin-6-yl)phenyl)ethynyl)-3-hydroxy-1-methylpyrrolidin-2-one] | 0.0006
9 | Cc1cc2cnc(-c3cccc(C#C[C@]4(O)CCN(C)C4=O)c3)nc2c(N)n1 [Example 44, (R)-3-((3-(8-Amino-6-methylpyrido[3,4-d]pyrimidin-2-yl)phenyl)ethynyl)-3-hydroxy-1-methylpyrrolidin-2-one] | 0.043

Test system: p-IKKα levels in L363 (NIK translocated multiple myeloma) cells
Assay: Effect of compounds on p-IKKα levels in L363 cells (AlphaLISA SureFire Ultra)
Format: cell-based, human
Settings: Homo sapiens, L-363, 6 h, BAFF stimulated, MG132, 6 h, average of values, read-out: Assay 2 IC50
Experimental: Effect of Compounds on p-IKKα Levels in L363 (NIK Translocated Multiple Myeloma) Cells
All compounds tested were dissolved and serially diluted in DMSO, 1:3 dilution for 11 points in an Echo compatible plate. 100% DMSO was added to columns 12 and 24 of the plate to serve as high and low signal controls. This compound plate was used to spot 20 nL of compound or DMSO into a Greiner 384 well TC plate (781080). The final DMSO concentration was 0.3% (v/v) in cell assays. Human L363 cells (ATCC) were cultured in RPM11640 medium supplemented with GlutaMax, non-essential amino acids, sodium pyruvate and 10% fetal bovine serum. Cells were routinely maintained at densities of […] at 37° C. in a humidified 5% CO2 atmosphere incubator. Cells were passaged twice a week splitting back to obtain the low density. The day before the assay, cells were washed twice in HBSS (Hank's Balanced Salt Solution), resuspended in Dulbecco's Modified Eagle Medium (DMEM)+0.5% IgG and protease free BSA (Jackson Immuno Research Laboratories), +/−250 ng/ml recombinant human B-cell activating factor (BAFF/BLyS/TNFSF13B) and incubated overnight at 37° C. in a humidified 5% CO2 atmosphere (bulk stimulation with or without BAFF). The next day, the cell concentration was adjusted to 1×10^7 cells/ml in DMEM+/−250 ng/ml BAFF+/−10 μM MG132 and plated at 10 μl/well into compound or DMSO spotted 384 well TC plates. Seeded cells were incubated at 37° C. in a humidified 5% CO2 atmosphere for 6 h. After 6 h, the plates were removed from the incubator and cell lysis was achieved by the addition of 2.5 μl 5× lysis buffer containing protease and phosphatase inhibitors, followed by shaking on a plate shaker at room temperature for 15 min. At the end of this incubation, lysed cells were sequentially treated and incubated with acceptor and donor bead mixes according to the manufacturer's protocol for a 1 plate/2-incubation suspension cell assay (AlphaLISA SureFire Ultra p-IKKa (Ser 176/180) Assay Kit (Perkin Elmer). Plates were read using an EnVision® Multilabel Plate Reader (Perkin Elmer). Within an experiment, a concentration response curve for each compound was run in duplicate. The signal obtained in the test wells was normalized using high signal (BAFF stimulated cells, DMSO, MG132) and low signal (unstimulated cells, DMSO) controls. To determine the IC50, a sigmoidal curve was fitted to the plot of % inhibition versus Log10 compound concentration.

Row | Structure (SMILES) | IC50 [µM]
10 | COc1ccc(C#C[C@]2(O)CCN(C)C2=O)cc1-c1nc2c(N)ncnc2s1 [Example 194, (R)-3-((3-(7-Aminothiazolo[5,4-d]pyrimidin-2-yl)-4-methoxyphenyl)ethynyl)-3-hydroxy-1-methylpyrrolidin-2-one] | 0.0083
11 | [2H]c1nc(N)c2nc(-c3cccc(C#C[C@@]4(O)C[C@H](C)N(C)C4=O)c3)ccc2n1 [Example 263, (3S,5S)-3-((3-(4-Aminopyrido[3,2-d]pyrimidin-6-yl-2-d)phenyl)ethynyl)-3-hydroxy-1,5-dimethylpyrrolidin-2-one] | 4.35
12 | Nc1nccc2c(C(F)(F)F)nc(-c3cccc(C#C[C@]4(O)CCc5cccnc54)c3)nc12 [Example 61, (R)-7-((3-(8-Amino-4-(trifluoromethyl)pyrido[3,4-d]pyrimidin-2-yl)phenyl)ethynyl)-6,7-dihydro-5H-cyclopenta[b]pyridin-7-ol] | 0.17
13 | [2H]c1nc(N)c2nc(-c3cccc(C#C[C@]4(O)CCN(C)C4=O)c3)ccc2n1 [Example 8, (R)-3-((3-(4-Aminopyrido[3,2-d]pyrimidin-6-yl-2-d)phenyl)ethynyl)-3-hydroxy-1-methylpyrrolidin-2-one] | 0.0033
14 | [2H]c1nc(N)c2nc(-c3cccc(C#C[C@@]4(O)CCCN(C)C4=O)c3)ccc2n1 [Example 199, (S)-3-((3-(4-Aminopyrido[3,2-d]pyrimidin-6-yl-2-d)phenyl)ethynyl)-3-hydroxy-1-methylpiperidin-2-one] | > 5
15 | [2H]c1nc(N)c2nc(-c3cccc(C#C[C@]4(O)C[C@H](C)N(C)C4=O)c3)ccc2n1 [Example 262, (3R,5S)-3-((3-(4-Aminopyrido[3,2-d]pyrimidin-6-yl-2-d)phenyl)ethynyl)-3-hydroxy-1,5-dimethylpyrrolidin-2-one] | 0.22
16 | [2H]c1nc(NC(C)=O)c2nc(-c3cccc(C#C[C@]4(O)CCN(C)C4=O)c3)ccc2n1 [Example 259, (R)—N-(6-(3-((3-Hydroxy-1-methyl-2-oxopyrrolidin-3-yl)ethynyl)phenyl)pyrido[3,2-d]pyrimidin-4-yl-2-d)acetamide] | 0.065
17 | [2H]c1nc(N)c2nc(-c3cccc(C#C[C@]4(O)C[C@@H](C)N(C)C4=O)c3)ccc2n1 [Example 261, (3R,5R)-3-((3-(4-Aminopyrido[3,2-d]pyrimidin-6-yl-2-d)phenyl)ethynyl)-3-hydroxy-1,5-dimethylpyrrolidin-2-one] | 0.0077
18 | [2H]c1nc(N)c2nc(-c3cccc(C#C[C@@]4(O)C[C@@H](C)N(C)C4=O)c3)ccc2n1 [Example 264, (3S,5R)-3-((3-(4-Aminopyrido[3,2-d]pyrimidin-6-yl-2-d)phenyl)ethynyl)-3-hydroxy-1,5-dimethylpyrrolidin-2-one] | 0.66
19 | CN1CC[C@@](O)(C#Cc2cccc(-c3ccc4ncnc(N)c4n3)c2)C1=O [Example 12, (R)-3-((3-(4-Aminopyrido[3,2-d]pyrimidin-6-yl)phenyl)ethynyl)-3-hydroxy-1-methylpyrrolidin-2-one] | 0.003
20 | CC(=O)Nc1ncnc2ccc(-c3cccc(C#C[C@]4(O)CCN(C)C4=O)c3)nc12 [Example 238, (R)—N-(6-(3-((3-Hydroxy-1-methyl-2-oxopyrrolidin-3-yl)ethynyl)phenyl)pyrido[3,2-d]pyrimidin-4-yl)acetamide] | 0.073
21 | CN1CC[C@@](O)(C#Cc2cccc(-c3nc4c(N)nccc4[nH]3)c2)C1=O [Example 59, (R)-3-[2-[3-(4-Amino-1H-imidazo[4,5-c]pyridin-2-yl)phenyl]ethynyl]-3-hydroxy-1-methyl-pyrrolidin-2-one] | > 5
22 | CN1CC[C@@](O)(C#Cc2cccc(-c3ccc4ncncc4n3)c2)C1=O [Example 223] | > 5
23 | [2H]c1nc(N)c2nc(-c3cccc(C#C[C@@]4(O)CCN(C)C4=O)c3)ccc2n1 [Example 9, (S)-3-((3-(4-Aminopyrido[3,2-d]pyrimidin-6-yl-2-d)phenyl)ethynyl)-3-hydroxy-1-methylpyrrolidin-2-one] | 0.67
24 | Cc1cc(C#C[C@]2(O)CCN(C)C2=O)cc(-c2nc3c(N)ncnc3s2)c1 [Example 153, (R)-3-((3-(7-Aminothiazolo[5,4-d]pyrimidin-2-yl)-5-methylphenyl)ethynyl)-3-hydroxy-1-methylpyrrolidin-2-one] | 0.047
25 | COC1CN(c2ncnc3ccc(-c4cccc(C#C[C@]5(O)CCN(C)C5=O)c4)nc23)C1 [Example 230, (R)-3-Hydroxy-3-((3-(4-(3-methoxyazetidin-1-yl)pyrido[3,2-d]pyrimidin-6-yl)phenyl)ethynyl)-1-methylpyrrolidin-2-one] | 0.35
26 | [2H]c1nc(NS(C)(=O)=O)c2nc(-c3cccc(C#C[C@]4(O)CCN(C)C4=O)c3)ccc2n1 [Example 269, (R)—N-(6-(3-((3-Hydroxy-1-methyl-2-oxopyrrolidin-3-yl)ethynyl)phenyl)pyrido[3,2-d]pyrimidin-4-yl-2-d)methanesulfonamide] | 3.85
